Experimental data taken from article PMC7953027 (Journal of Pesticide Science, 2021).

Assays:
A. albopictus larvae = test: Larvicidal assay on second-instar larvae; format: in vivo, Aedes albopictus; details: for mortality at 1 µM / LC50: Aedes albopictus, 72 h; for mortality at 1 µM: read-out: Mortality (%) at 1 µM Obsd.; for LC50: read-out: pLC50 (M) (converted); for Logit A Obsd.: logit-transformed mortality at 1 µM based on Eq. 1; for larvicidal activity (in words): 1 µM, 3 days
Aedes albopictus EcRs = target: T1, Aedes albopictus EcRs (Aedes albopictus, UniProt Q9U3Y4); format: binding; details: for pIC50 (M): Series II, [3H]PonA binding, NIAS-AeAl-2 cells, 30 min, 25°C, mean±SD; for change in binding potency compared to the parent compound: 21, 22, 23 vs. 1, 28, 31 vs. 22
T1 sequence (Q9U3Y4 1-680): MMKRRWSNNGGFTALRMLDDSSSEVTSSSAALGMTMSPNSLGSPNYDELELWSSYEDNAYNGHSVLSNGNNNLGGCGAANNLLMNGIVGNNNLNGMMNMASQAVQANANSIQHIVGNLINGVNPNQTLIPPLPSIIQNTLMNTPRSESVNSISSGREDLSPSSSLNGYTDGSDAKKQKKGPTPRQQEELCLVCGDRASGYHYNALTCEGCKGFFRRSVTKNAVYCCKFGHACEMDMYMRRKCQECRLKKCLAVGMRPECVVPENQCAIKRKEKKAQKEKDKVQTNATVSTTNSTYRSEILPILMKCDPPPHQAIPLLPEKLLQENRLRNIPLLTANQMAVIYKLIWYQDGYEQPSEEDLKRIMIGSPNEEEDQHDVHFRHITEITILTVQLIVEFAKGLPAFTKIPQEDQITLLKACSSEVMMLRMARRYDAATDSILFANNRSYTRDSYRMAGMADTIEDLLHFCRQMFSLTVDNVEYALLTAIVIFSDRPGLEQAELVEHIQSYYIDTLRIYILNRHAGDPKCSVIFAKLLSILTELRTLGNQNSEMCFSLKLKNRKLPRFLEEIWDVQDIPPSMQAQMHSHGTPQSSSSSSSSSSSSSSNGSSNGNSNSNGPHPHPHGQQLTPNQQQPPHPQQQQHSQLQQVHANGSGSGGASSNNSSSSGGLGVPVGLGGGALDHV
T1 sequence (Q9U3Y3 1-485 partner): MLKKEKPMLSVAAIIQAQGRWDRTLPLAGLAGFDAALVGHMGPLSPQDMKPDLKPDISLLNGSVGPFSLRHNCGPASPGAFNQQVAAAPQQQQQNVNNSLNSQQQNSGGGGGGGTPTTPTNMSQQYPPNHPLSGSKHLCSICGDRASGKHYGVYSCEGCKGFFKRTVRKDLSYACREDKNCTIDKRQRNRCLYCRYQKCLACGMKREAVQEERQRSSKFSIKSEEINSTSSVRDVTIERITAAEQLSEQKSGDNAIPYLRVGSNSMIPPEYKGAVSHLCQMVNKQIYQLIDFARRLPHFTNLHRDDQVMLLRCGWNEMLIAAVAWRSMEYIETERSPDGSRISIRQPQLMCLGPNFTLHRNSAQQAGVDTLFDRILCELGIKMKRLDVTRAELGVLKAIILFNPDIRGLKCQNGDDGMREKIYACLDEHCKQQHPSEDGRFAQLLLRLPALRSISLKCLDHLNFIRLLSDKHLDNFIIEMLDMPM

SMILES | mortality at 1 µM (A. albopictus larvae) | LC50 (A. albopictus larvae) | Logit A Obsd. (A. albopictus larvae) | pIC50 (M) (Aedes albopictus EcRs) | larvicidal activity (in words) (A. albopictus larvae) | change in binding potency compared to the parent compound (Aedes albopictus EcRs)
C[C@@H]1C[C@H](Nc2ccccc2)c2cc(F)ccc2N1C(=O)c1ccc(C(F)(F)F)nc1 [Compound 30] | 44 ± 24% | 9.55e-07 M | −0.10 | 7.03±0.00 (2) M | – | –
C[C@@H]1C[C@H](Nc2ccccc2)c2cc(F)ccc2N1C(=O)c1ccnc(C#N)c1 [Compound 35] | 0% | – | – | 6.55±0.07 (2) M | did not show larvicidal activity | –
C[C@@H]1C[C@H](Nc2ccccc2)c2cc(F)ccc2N1C(=O)c1cncnc1 [Compound 26] | 5% | – | −1.28 | 6.37±0.02 (2) M | – | –
C[C@@H]1C[C@H](Nc2ccccc2)c2cc(F)ccc2N1C(=O)c1ccnc(C(F)(F)F)c1 [Compound 34] | 0% | – | – | 6.56±0.04 (2) M | did not show larvicidal activity | –
C[C@@H]1C[C@H](Nc2ccccc2)c2cc(F)ccc2N1C(=O)c1cnc(Cl)nc1 [Compound 27] | 16% | – | −0.72 | 6.11±0.12 (2) M | – | –
C[C@@H]1C[C@H](Nc2ccccc2)c2cc(F)ccc2N1C(=O)c1ccnc(F)c1 [Compound 32] | 74 ± 11% | 4.68e-07 M | 0.44 | 7.47±0.08 (2) M | – | –
C[C@@H]1C[C@H](Nc2ccccc2)c2cc(F)ccc2N1C(=O)c1ccc(C#N)nc1 [Compound 31] | 77 ± 19% | 5.13e-07 M | 0.51 | 7.61±0.08 (2) M | – | sevenfold gain in potency
C[C@@H]1C[C@H](Nc2ccccc2)c2cc(F)ccc2N1C(=O)c1ccncc1 [Compound 23, (2R,4S)-6-fluoro-2-methyl-4-(phenylamino)-1-(4-pyridylcarbonyl)-1,2,3,4-tetrahydroquinoline] | 36 ± 14% | 2.57e-06 M | −0.24 | 7.29±0.03 (2) M | – | eightfold gain in potency
C[C@@H]1C[C@H](Nc2ccccc2)c2cc(F)ccc2N1C(=O)c1cccnc1 [Compound 22] | 0% | – | – | 6.76±0.15 (2) M | did not show larvicidal activity | –
C[C@@H]1C[C@H](Nc2ccccc2)c2cc(F)ccc2N1C(=O)c1ccc(Cl)nc1 [Compound 29] | 80% | 4.57e-07 M | 0.60 | 7.09±0.07 (2) M | – | –
Cc1ccc(C(=O)N2c3ccc(F)cc3[C@@H](Nc3ccccc3)C[C@H]2C)cn1 [Compound 28] | 11% | – | −0.91 | 6.64±0.08 (2) M | – | equipotent
C[C@@H]1C[C@H](Nc2ccccc2)c2cc(F)ccc2N1C(=O)c1ccncn1 [Compound 24] | 10% | – | −0.95 | 6.67±0.03 (2) M | – | –
C[C@@H]1C[C@H](Nc2ccccc2)c2cc(F)ccc2N1C(=O)c1ccnnc1 [Compound 25] | 10% | – | −0.95 | 6.51±0.13 (2) M | – | –
C[C@@H]1C[C@H](Nc2ccccc2)c2cc(F)ccc2N1C(=O)c1ccccn1 [Compound 21, (2R,4S)-6-fluoro-2-methyl-4-(phenylamino)-1-(2-pyridylcarbonyl)-1,2,3,4-tetrahydroquinoline] | 0% | – | – | 5.93±0.08 (2) M | did not show larvicidal activity | threefold loss in potency
